From patent US20260027119A1, “INHIBITORS OF CALCIUM/CALMODULIN-DEPENDENT PROTEIN KINASE II AND THEIR USES” (priority 2022, published 2026)

Assays:
CaMKII [1] = assay: CaMKII activation in cardiomyocytes stimulated by field pacing (simulated tachycardia); format: cell-based
Text: FIG. 4A, FIG. 4B, and FIG. 4C show compounds that inhibit CaMKII in cardiomyocytes. CaMKII is stimulated in cardiac cells by simulating tachycardia with field pacing. […] When drug concentration is adjusted to match their respective maximum human plasma concentration, four out of the five compounds were able to ameliorate CaMKII (FIG. 4B, FIG. 4C).
(§1) In some embodiments, the presently disclosed subject matter provides a CaMKII activity biosensor, referred to herein as a CaMKII Activity Reporter (CaMKAR), that is tractable for high-throughput screens. Using this sensor, a library of compounds that are safe for human use (i.e., Food and Drug Administration (FDA)-, European Medicines Agency (EMA)-, China Food and Drug Administration (CFDA)-, and Pharmaceuticals and Medical Devices Agency (PMDA)-approved compounds) was screened for previously unidentified CaMKII inhibitors.

[2] = tested on: constitutively active CaMKIIδ; assay: CaMKII inhibition in HEK293 cells expressing constitutively active CaMKIIδ; format: cell-based
Text: (§2) FIG. 1A, FIG. 1B, FIG. 1C, and FIG. 1D show high-throughput screening to identify CaMKII inhibitors. A stable human cell line that expresses CaMKAR and constitutively active human CaMKIIδ (cardiac isoform) was developed. […] In these cells, the JHDLv3 library, which contains 4,475 compounds that are approved for human use, was screened (FIG. 1B). This primary screen identified 118 candidate compounds, which were subscreened using a CaMKAR in vitro assay (FIG. 1C). Validation of these hits in HEK293 cells and by a third-party laboratory led to five potent inhibitors.

[3] = tested on: constitutively active human CaMKIIδ (cardiac isoform); assay: High-throughput CaMKAR screen in stable human cell line expressing CaMKAR and constitutively active human CaMKIIδ; format: cell-based
Text: as §2, §1

CaMKII [4] = target: CaMKII (Homo sapiens, UniProt Q13557); assay: CaMKAR in vitro assay (subscreen of primary hits); format: biochemical
Sequence of CaMKII (Homo sapiens, UniProt Q13557) (Q13557 whole entry): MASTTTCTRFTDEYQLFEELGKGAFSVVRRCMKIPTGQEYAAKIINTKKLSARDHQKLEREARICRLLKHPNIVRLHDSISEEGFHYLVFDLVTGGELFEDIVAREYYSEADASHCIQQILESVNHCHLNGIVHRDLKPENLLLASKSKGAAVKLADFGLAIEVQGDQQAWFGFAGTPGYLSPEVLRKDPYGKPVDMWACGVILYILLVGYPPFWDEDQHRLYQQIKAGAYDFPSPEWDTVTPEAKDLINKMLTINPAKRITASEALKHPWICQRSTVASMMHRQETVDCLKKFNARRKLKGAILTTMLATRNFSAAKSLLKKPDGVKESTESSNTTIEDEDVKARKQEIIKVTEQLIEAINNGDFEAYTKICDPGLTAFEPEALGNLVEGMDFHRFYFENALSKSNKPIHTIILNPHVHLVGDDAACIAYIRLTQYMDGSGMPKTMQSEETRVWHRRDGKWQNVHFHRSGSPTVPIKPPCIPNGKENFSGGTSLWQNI
Text: as §2

SMILES | CaMKII activity in rat cardiac cells (CaMKII [1]) | Potency of CaMKII inhibition relative to tool inhibitor AS100397 [2] | Inhibition of cardiac CaMKII (CaMKIIδ) in human cells ([3]; human cells) | CaMKII inhibition in CaMKAR in vitro assay (CaMKII [4]) | CaMKII inhibition reported by CaMKAR in primary screen cell line ([3]; stable human cell line expressing CaMKAR and constitutively active human CaMKIIδ)
CCS(=O)(=O)N1CC(CC#N)(n2cc(-c3ncnc4[nH]ccc34)cn2)C1 [Baricitinib] | prevented CaMKII activity | more potent | potently inhibited | – | –
CN[C@@H]1C[C@H]2O[C@@](C)([C@@H]1OC)n1c3ccccc3c3c4c(c5c6ccccc6n2c5c31)C(=O)NC4 [Staurosporine] | – | – | – | recovered | recovered
